Data from the supplement of paper PMC10307832.

What was measured:
Assay in all cases: relative viability (nuclei count vs DMSO), 5 days (fraction); higher = more cells survive
[1] = compound: COc1cc2ncn(-c3cc(OCc4ccccc4C(F)(F)F)c(C(N)=O)s3)c2cc1OC + CCNC(=O)c1noc(-c2cc(C(C)C)c(O)cc2O)c1-c1ccc(CN2CCOCC2)cc1 [Luminespib] (partner 0.01 µM)
Procedure, shortened: (§1)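 Lung cancer cell lines were pin-tool dosed in 1536-well plates on the day after seeding, with either a lone drug or a fixed anchor-drug dose plus five library-drug doses (not always all listed) in √10 steps. Nuclei were counted on 4× images after 5 days. Relative viability is the ratio of treated-well to vehicle-well nuclei counts, with each value a median of duplicate plates.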

[2] = compound: COc1cc2ncn(-c3cc(OCc4ccccc4C(F)(F)F)c(C(N)=O)s3)c2cc1OC + Cc1cc(Nc2cc(N3CCN(C)CC3)nc(Sc3ccc(NC(=O)C4CC4)cc3)n2)n[nH]1 [Tozasertib] (partner 0.1 µM)
Procedure, shortened: as §1

[3] = compound: COc1cc2ncn(-c3cc(OCc4ccccc4C(F)(F)F)c(C(N)=O)s3)c2cc1OC + Cc1nc(NC(=O)N2CCC[C@H]2C(N)=O)sc1-c1ccnc(C(C)(C)C(F)(F)F)c1 [Alpelisib] (partner 2 µM)
Procedure, shortened: as §1

[4] = compound: COc1cc2ncn(-c3cc(OCc4ccccc4C(F)(F)F)c(C(N)=O)s3)c2cc1OC + Cc1nc(Nc2ncc(C(=O)Nc3c(C)cccc3Cl)s2)cc(N2CCN(CCO)CC2)n1 [Dasatinib] (partner 0.075 µM)
Procedure, shortened: as §1

Work on PC-3 [JPC-3] yielded a relative viability ([1]; first compound 0.05 µM) of 0.66, a relative viability ([1]; first compound 0.1581 µM) of 0.712 and a relative viability ([1]; first compound 0.5 µM) of 0.486. It also gave a relative viability ([1]; first compound 1.581 µM) of 0.221, a relative viability ([1]; first compound 5 µM) of 0.19 and a relative viability ([2]; first compound 0.05 µM) of 0.892. For the same cell line, the relative viability ([2]; first compound 0.1581 µM) was 0.856, the relative viability ([2]; first compound 0.5 µM) was 0.4 and the relative viability ([2]; first compound 1.581 µM) was 0.33. For the same cell line, the relative viability ([2]; first compound 5 µM) was 0.369, the relative viability ([3]; first compound 0.05 µM) was 0.983 and the relative viability ([3]; first compound 0.1581 µM) was 0.98. It also gave a relative viability ([3]; first compound 0.5 µM) of 0.707, a relative viability ([3]; first compound 1.581 µM) of 0.307 and a relative viability ([3]; first compound 5 µM) of 0.318. It also gave a relative viability ([4]; first compound 0.05 µM) of 0.943, a relative viability ([4]; first compound 0.1581 µM) of 0.98 and a relative viability ([4]; first compound 0.5 µM) of 0.767. It also gave a relative viability ([4]; first compound 1.581 µM) of 0.174 and a relative viability ([4]; first compound 5 µM) of 0.168.
For PC-14, the relative viability ([1]; first compound 0.05 µM) was 0.15, the relative viability ([1]; first compound 0.1581 µM) was 0.303 and the relative viability ([1]; first compound 0.5 µM) was 0.189. It also gave a relative viability ([1]; first compound 1.581 µM) of 0.159, a relative viability ([1]; first compound 5 µM) of 0.133 and a relative viability ([2]; first compound 0.05 µM) of 0.649. It also gave a relative viability ([2]; first compound 0.1581 µM) of 0.715, a relative viability ([2]; first compound 0.5 µM) of 0.525 and a relative viability ([2]; first compound 1.581 µM) of 0.163. The relative viability ([2]; first compound 5 µM) was 0.354, the relative viability ([3]; first compound 0.05 µM) was 0.833 and the relative viability ([3]; first compound 0.1581 µM) was 0.944. The relative viability ([3]; first compound 0.5 µM) was 0.768, the relative viability ([3]; first compound 1.581 µM) was 0.0614 and the relative viability ([3]; first compound 5 µM) was 0.135. The relative viability ([4]; first compound 0.05 µM) was 0.201, the relative viability ([4]; first compound 0.1581 µM) was 0.235 and the relative viability ([4]; first compound 0.5 µM) was 0.106. For the same cell line, the relative viability ([4]; first compound 1.581 µM) was 0.0176 and the relative viability ([4]; first compound 5 µM) was 0.0233.
RERF-LC-KJ gave a relative viability ([1]; first compound 0.05 µM) of 1.31, a relative viability ([1]; first compound 0.1581 µM) of 1.24 and a relative viability ([1]; first compound 0.5 µM) of 0.373. The relative viability ([1]; first compound 1.581 µM) was 0.306, the relative viability ([1]; first compound 5 µM) was 0.268 and the relative viability ([2]; first compound 0.05 µM) was 0.476. For the same cell line, the relative viability ([2]; first compound 0.1581 µM) was 0.646, the relative viability ([2]; first compound 0.5 µM) was 0.247 and the relative viability ([2]; first compound 1.581 µM) was 0.248. The relative viability ([2]; first compound 5 µM) was 0.257, the relative viability ([3]; first compound 0.05 µM) was 0.859 and the relative viability ([3]; first compound 0.1581 µM) was 0.849. It also gave a relative viability ([3]; first compound 0.5 µM) of 0.515, a relative viability ([3]; first compound 1.581 µM) of 0.294 and a relative viability ([3]; first compound 5 µM) of 0.622. For the same cell line, the relative viability ([4]; first compound 0.05 µM) was 0.846, the relative viability ([4]; first compound 0.1581 µM) was 0.748 and the relative viability ([4]; first compound 0.5 µM) was 0.336. The relative viability ([4]; first compound 1.581 µM) was 0.21 and the relative viability ([4]; first compound 5 µM) was 0.182.
Cell Line SK-LU-1 has a relative viability ([1]; first compound 0.05 µM) of 0.223, a relative viability ([1]; first compound 0.1581 µM) of 0.238 and a relative viability ([1]; first compound 0.5 µM) of 0.203. The relative viability ([1]; first compound 1.581 µM) was 0.217, the relative viability ([1]; first compound 5 µM) was 0.193 and the relative viability ([2]; first compound 0.05 µM) was 0.306. The relative viability ([2]; first compound 0.1581 µM) was 0.301, the relative viability ([2]; first compound 0.5 µM) was 0.285 and the relative viability ([2]; first compound 1.581 µM) was 0.225. The relative viability ([2]; first compound 5 µM) was 0.206, the relative viability ([3]; first compound 0.05 µM) was 1.02 and the relative viability ([3]; first compound 0.1581 µM) was 0.778. For the same cell line, the relative viability ([3]; first compound 0.5 µM) was 0.276, the relative viability ([3]; first compound 1.581 µM) was 0.291 and the relative viability ([3]; first compound 5 µM) was 0.306. The relative viability ([4]; first compound 0.05 µM) was 0.183, the relative viability ([4]; first compound 0.1581 µM) was 0.198 and the relative viability ([4]; first compound 0.5 µM) was 0.138. For the same cell line, the relative viability ([4]; first compound 1.581 µM) was 0.146 and the relative viability ([4]; first compound 5 µM) was 0.158.
SK-MES-1 was tested, and the relative viability ([1]; first compound 0.05 µM) was 0.725, the relative viability ([1]; first compound 0.1581 µM) was 0.83 and the relative viability ([1]; first compound 0.5 µM) was 0.266. For the same cell line, the relative viability ([1]; first compound 1.581 µM) was 0.167, the relative viability ([1]; first compound 5 µM) was 0.182 and the relative viability ([2]; first compound 0.05 µM) was 0.586. For the same cell line, the relative viability ([2]; first compound 0.1581 µM) was 0.631, the relative viability ([2]; first compound 0.5 µM) was 0.241 and the relative viability ([2]; first compound 1.581 µM) was 0.174. For the same cell line, the relative viability ([2]; first compound 5 µM) was 0.195, the relative viability ([3]; first compound 0.05 µM) was 0.924 and the relative viability ([3]; first compound 0.1581 µM) was 0.883. For the same cell line, the relative viability ([3]; first compound 0.5 µM) was 0.639, the relative viability ([3]; first compound 1.581 µM) was 0.148 and the relative viability ([3]; first compound 5 µM) was 0.553. For the same cell line, the relative viability ([4]; first compound 0.05 µM) was 0.338, the relative viability ([4]; first compound 0.1581 µM) was 0.367 and the relative viability ([4]; first compound 0.5 µM) was 0.184. For the same cell line, the relative viability ([4]; first compound 1.581 µM) was 0.129 and the relative viability ([4]; first compound 5 µM) was 0.116.
SW 1573 showed a relative viability ([1]; first compound 0.05 µM) of 0.547, a relative viability ([1]; first compound 0.1581 µM) of 0.337 and a relative viability ([1]; first compound 0.5 µM) of 0.12. The relative viability ([1]; first compound 1.581 µM) was 0.091, the relative viability ([1]; first compound 5 µM) was 0.154 and the relative viability ([2]; first compound 0.05 µM) was 0.154. It also gave a relative viability ([2]; first compound 0.1581 µM) of 0.179, a relative viability ([2]; first compound 0.5 µM) of 0.192 and a relative viability ([2]; first compound 1.581 µM) of 0.174. It also gave a relative viability ([2]; first compound 5 µM) of 0.139, a relative viability ([3]; first compound 0.05 µM) of 0.828 and a relative viability ([3]; first compound 0.1581 µM) of 0.669. The relative viability ([3]; first compound 0.5 µM) was 0.629, the relative viability ([3]; first compound 1.581 µM) was 0.326 and the relative viability ([3]; first compound 5 µM) was 0.182. It also gave a relative viability ([4]; first compound 0.05 µM) of 0.574, a relative viability ([4]; first compound 0.1581 µM) of 0.416 and a relative viability ([4]; first compound 0.5 µM) of 0.11. The relative viability ([4]; first compound 1.581 µM) was 0.0632 and the relative viability ([4]; first compound 5 µM) was 0.0788.
With UMC-11 the relative viability ([1]; first compound 0.05 µM) was 0.974, the relative viability ([1]; first compound 0.1581 µM) was 0.722 and the relative viability ([1]; first compound 0.5 µM) was 0.128. The relative viability ([1]; first compound 1.581 µM) was 0.161, the relative viability ([1]; first compound 5 µM) was 0.145 and the relative viability ([2]; first compound 0.05 µM) was 0.194. For the same cell line, the relative viability ([2]; first compound 0.1581 µM) was 0.192, the relative viability ([2]; first compound 0.5 µM) was 0.193 and the relative viability ([2]; first compound 1.581 µM) was 0.278. For the same cell line, the relative viability ([2]; first compound 5 µM) was 0.253, the relative viability ([3]; first compound 0.05 µM) was 0.872 and the relative viability ([3]; first compound 0.1581 µM) was 0.928. The relative viability ([3]; first compound 0.5 µM) was 0.128, the relative viability ([3]; first compound 1.581 µM) was 0.106 and the relative viability ([3]; first compound 5 µM) was 0.101. The relative viability ([4]; first compound 0.05 µM) was 0.533, the relative viability ([4]; first compound 0.1581 µM) was 0.399 and the relative viability ([4]; first compound 0.5 µM) was 0.168. The relative viability ([4]; first compound 1.581 µM) was 0.18 and the relative viability ([4]; first compound 5 µM) was 0.133.
